Assay results: patent publication US20080057136A1, “Disinfecting Composition and Methods of Making and Using Same” (priority 2003, published 2008)
Values after ≈ are worked out from the molar mass of the structure shown.

Legend:
C. albicans = assay: MIC and MBC determination by doubling dilutions (Study 509-102); format: cell-based; settings: Candida albicans, Inoculum Counts: 6.6 × 10^5
Text: (§1) Table 2 below indicates the stock dilutions for each test agent, and a breakdown of the resulting concentrations for each of the doubling dilutions performed is summarized in Table 3.
(§2) From the stock dilutions, an initial 1:10 dilution was made (representing tube 1), followed by doubling dilutions (tubes 2-12), as detailed in Table 3.

T. rubrum = assay: as above; format: cell-based, Trichophyton rubrum; settings: Trichophyton rubrum; Study 509-102; Inoculum Counts: 3.6 × 10^8
Text: as §1, §2

C. albicans ATCC 10231 [1] = assay: NCCLS broth microdilution MIC and MFC (Example 11); format: cell-based, Candida albicans; settings: for MIC: amphotericin B complete inhibition, terbinafine 50%/90%
Protocol: (§4) Strains of C. albicans (ATCC 10231) and T. rubrum (ATCC 28188) were tested in this study. Strains were removed from frozen stock and subcultured twice on blood agar to ensure that the strains had optimal growth and metabolic status before testing. Strains were tested by NCCLS broth microdilution (M27-A2, 2002) and challenged with AMC solution and its individual components […] ), and isopropanol. Amphotericin B, fluconazole, terbinafine, and Hibiclens were added as comparator compounds. […] Microtiter panels were created on the day of MIC testing. A 50 μl aliquot of RPMI 1640 was delivered to each well except those in column one of the microtiter panel. The working solution of AMC and each of its components, and comparative agents were delivered to the designated wells in column one; AMC, components, and comparators were serially diluted across the panel. A 50 μl aliquot of fungal suspension was then added to each well on the microtiter panel, using a new pipette tip for each aliquot. […] For amphotericin B, the endpoint was read as the complete inhibition of growth. […] MFCs were performed to determine the concentration at which ≧99% of the starting fungal inoculum was killed. […] After incubation, colony counts for each panel well plated were recorded. […] The endpoint for amphotericin B was read as complete inhibition of growth.

T. rubrum ATCC 28188 [2] = assay: NCCLS broth microdilution MIC and MFC (Example 11); format: cell-based, Trichophyton rubrum; settings: Example 11; for fungicidal activity: MFC within 1 doubling dilution of the MIC
Protocol: as §4

E. coli (strain 1257) = assay: Time-kill test, initial studies (death time); format: cell-based, Escherichia coli
Text: (§3) Time-kill tests were used to measure the disinfecting property of test compounds, e.g., microbiocidal or sporicidal compositions, using select bacterial challenge microorganisms such as the vegetative forms of, e.g., E. coli (strain 1257) S. aureus (strain 906), and Bacillus cereus (strain 96).

S. aureus (strain 906) = assay: Time-kill test, initial studies (death time); format: cell-based, Staphylococcus aureus
Text: as §3

[3] = tested on: Staphylococcus aureus (ATCC 25923); assay: Time-Kill test (Example 9); format: cell-based; settings: Study 509-101; at 30 seconds
Protocol: A panel of “challenge microorganisms,” including select bacteria, yeast, and fungi was used to assess the disinfecting properties of test compounds, e.g., AMC (DPT Laboratories). Specifically, the disinfectant property of test compounds were tested against Staphylococcus aureus (ATCC 25923); Staphylococcus epidermidis (ATCC 12228); Bacillus subtilis (ATCC 19659); Escherichia coli (ATCC 11229); and Pseudomonas aeruginosa (ATCC 15442) bacteria, as well as the yeast Candida albicans (ATCC 10231), and the fungus Trichophyton rubrum (ATCC 28188). The test procedure incorporated the recommendations described in the “Manual of Clinical Microbiology,” 5th ed., edited by A. B. Balows et al., ASM, Washington, as directed by the Federal Register, June 1994. […]
A single lot of test material was prepared at various concentrations, along with multiple compounds prepared in various concentrations and combinations. […] The plates were then incubated, and the average colony forming units (CFU) recovered per milliliter were determined for each contact time. […]
Bacteria and C. albicans from stock cultures were transferred into trypticase soya broth (TSB) and incubated for 18-24 hours at 37° C.±2° C. […] The microbe concentration was measured using a spectrophotometric technique well-known in the art. […]

[4] = tested on: S. epidermidis ATCC 12228; assay: NCCLS broth microdilution MIC and MBC (Example 10); format: cell-based, Staphylococcus epidermidis
Protocol: (§5) Strains of E. coli (ATCC 11229), D. aeruginosa (ATCC 15442), S. aureus (ATCC 25923), S. epidermidis (ATCC 12228), S. pyogenes (ATCC 19615), C. albicans (ATCC 10231), and T. rubrum (ATCC 28188) were used as “challenge microorganisms” in this study. Strains were removed from frozen stock and subcultured twice on blood agar to ensure that the strains had optimal growth and metabolic status before testing.
(§6) Hibiclens (industry comparator) and ciprofloxacin were added to the bacterial panel. Amphotericin B, fluconazole, and Hibiclens were added as comparative agents in the fungal panels.
(§7) For testing purposes, AMC, AMC components, and Hibiclens were diluted to 50% of the working solution to cover the proposed AMC use dilution of 20%.
(§8) Microtiter panels were created on the day of MIC testing. A 50 μl aliquot of Mueller-Hinton broth (for bacterial strains) or RPMI 1640 (for fungal strains) was delivered to each well, except those in column one of the microtiter panel. The working solution of AMC and each of its components, and comparative agents were delivered to the designated wells in column one. AMC, components, and comparators were serially diluted across the panel. A 50 μl aliquot of bacterial or fungal suspension was then added to each well on the microtiter panel, using a new pipette tip for each aliquot. Panels were incubated at 35° C. for 16-20 h for the E. coli, P. aeruginosa, and S. aureus strains, 20-24 h for the S. pyogenes strain, and 48 h for the C. albicans strain.
(§9) The 10 μl samples were plated on to blood agar and incubated at 35° C. for 24 h (E. coli and P. aeruginosa) or 48 h (S. aureus, S. epidermidis, and S. pyogenes). After incubation, colony counts for each panel well plated were recorded.
(§10) The MIC % is expressed as g/100 ml or ml/100 ml. […] The MBC % is expressed as g/100 ml or ml/100 ml.

S. aureus ATCC 25923 = assay: NCCLS broth microdilution MIC and MBC (Example 10); format: cell-based, Staphylococcus aureus; settings: Example 10
Protocol: as §5, §6, §7, §8, §9, §10

S. pyogenes ATCC 19615 = assay: NCCLS broth microdilution MIC and MBC (Example 10); format: cell-based, Streptococcus pyogenes; settings: Example 10
Protocol: as §5, §6, §7, §8, §9, §10

E. coli ATCC 11229 = assay: NCCLS broth microdilution MIC and MBC (Example 10); format: cell-based, Escherichia coli; settings: % as g/100 ml or ml/100 ml
Protocol: as §5, §6, §7, §8, §9, §10

P. aeruginosa ATCC 15442 = assay: NCCLS broth microdilution MIC and MBC (Example 10); format: cell-based, Pseudomonas aeruginosa; settings: Example 10
Protocol: as §5, §6, §7, §8, §9, §10

C. albicans ATCC 10231 [5] = assay: NCCLS broth microdilution MIC and MFC (Example 10); format: cell-based, Candida albicans
Protocol: as §5
(§11) Amphotericin B, fluconazole, and Hibiclens were added as comparative agents in the fungal panels.
as §7
(§12) Microtiter panels were created on the day of MIC testing. A 50 μl aliquot of Mueller-Hinton broth (for bacterial strains) or RPMI 1640 (for fungal strains) was delivered to each well, except those in column one of the microtiter panel. The working solution of AMC and each of its components, and comparative agents were delivered to the designated wells in column one. AMC, components, and comparators were serially diluted across the panel. A 50 μl aliquot of bacterial or fungal suspension was then added to each well on the microtiter panel, using a new pipette tip for each aliquot. Panels were incubated at 35° C. for 16-20 h for the E. coli, P. aeruginosa, and S. aureus strains, 20-24 h for the S. pyogenes strain, and 48 h for the C. albicans strain. T. rubrum panels were incubated for 3 to 4 days before MICs were read. […] Fungal MICs (%) were read using an 80% reduction in the growth endpoint relative to the turbidity of the growth control for AMC, its components, and fluconazole. For amphotericin B, the endpoint was read as the complete inhibition of growth.
(§13) MFCs were determined in a similar manner.
(§14) The endpoint for amphotericin B was read as complete inhibition of growth. The MIC % is expressed as g/100 ml or ml/100 ml. […] The MFC % is expressed as g/100 ml or ml/100 ml.

T. rubrum ATCC 28188 [6] = assay: NCCLS broth microdilution MIC and MFC (Example 10); format: cell-based, Trichophyton rubrum; settings: Example 10
Protocol: as §5, §11, §7, §12, §13, §14

[7] = MFC within 1 doubling dilution of the MIC
[8] = 80% reduction in growth endpoint
[9] = 80% reduction in growth, amphotericin B complete inhibition

With `Clc1ccc(COC(Cn2ccnc2)c2ccc(Cl)cc2Cl)c(Cl)c1` (centres unmarked) [Miconazole] the MBC (C. albicans) was 2 µg/mL (≈ 4.81 µM), the MIC (C. albicans) was 2 µg/mL (≈ 4.81 µM) and the MBC (T. rubrum) was 0.25 µg/mL (≈ 0.601 µM). For the same compound, the MIC (T. rubrum) was 0.25 µg/mL (≈ 0.601 µM).

For `CN(C/C=C/C#CC(C)(C)C)Cc1cccc2ccccc12` [Terbinafine], the “MIC” value (C. albicans ATCC 10231 [1]; 80% reduction in growth) was >0.5 µg/mL, the MIC (C. albicans ATCC 10231 [1]; Candida albicans, ATCC10231, 80% reduction in growth, read-out: MIC) was > 0.5 µg/mL and the MFC (C. albicans ATCC 10231 [1]; Candida albicans, ATCC10231, read-out: MFC) was > 0.5 µg/mL. The fungicidal activity (C. albicans ATCC 10231 [1]; [7]) was “Fungicidal activity”, the fungicidal activity (T. rubrum ATCC 28188 [2]) was “did not demonstrate fungicidal activity” and the MIC (T. rubrum ATCC 28188 [2]; Trichophyton rubrum, ATCC28188, read-out: MIC (μg/ml), read at 50% inhibition of growth, terbinafine, 50% reading) was 0.008 µg/mL (≈ 0.0275 µM). It also gave an MIC (T. rubrum ATCC 28188 [2]; Trichophyton rubrum, ATCC28188, read-out: MIC (μg/ml), read at 90% inhibition of growth, terbinafine, 90% reading) of 0.032 µg/mL (≈ 0.11 µM) and an MFC (T. rubrum ATCC 28188 [2]; Trichophyton rubrum, ATCC28188, read-out: MFC) of 0.125 µg/mL (≈ 0.429 µM).

With `O=C(O)CN(CCN(CC(=O)O)CC(=O)O)CC(=O)O.[Zn]` [ZnEDTA, ethylenediaminotetraacetate zinc complex] the “Death time of test-microorganisms (min) E. coli” value (E. coli (strain 1257); Conc. 0.1 %) was >30 min, the “Death time of test-microorganisms (min) E. coli” value (E. coli (strain 1257); Conc. 5.0 %) was >30 min and the “Death time of test-microorganisms (min) S. aureus” value (S. aureus (strain 906); Conc. 0.1 %) was >30 min. The “Death time of test-microorganisms (min) S. aureus” value (S. aureus (strain 906); Conc. 5.0 %) was >30 min, the “reduction of S. aureus count” value [3] was “ineffective” and the “MCB (μg/ml)” value [4] was “(>25000) μg/ml”. The “MCB, %” value ([4]; % as g/100 ml or ml/100 ml) was >2.5%, the “MIC, %” value ([4]; % as g/100 ml or ml/100 ml) was 1.3% and the “MBC (μg/ml)” value (S. aureus ATCC 25923) was “(>25000) μg/ml”. For the same compound, the “MBC, %” value (S. aureus ATCC 25923; % as g/100 ml or ml/100 ml) was >2.5%, the “MIC, %” value (S. aureus ATCC 25923; % as g/100 ml or ml/100 ml) was 1.3% and the “MBC (μg/ml)” value (S. pyogenes ATCC 19615) was “(13000) μg/ml”. For the same compound, the “MBC, %” value (S. pyogenes ATCC 19615; % as g/100 ml or ml/100 ml) was 1.3%, the “MIC, %” value (S. pyogenes ATCC 19615; % as g/100 ml or ml/100 ml) was 1.3% and the “MIC, %” value (E. coli ATCC 11229) was 2%. For the same compound, the “MBC” value (P. aeruginosa ATCC 15442) was 80000 µg/mL, the “MBC, %” value (P. aeruginosa ATCC 15442; % as g/100 ml or ml/100 ml) was 8% and the “MIC, %” value (P. aeruginosa ATCC 15442; % as g/100 ml or ml/100 ml) was 2%. For the same compound, the bactericidal activity (P. aeruginosa ATCC 15442; MBC within one doubling dilution of the MIC) was “did not meet the definition of bactericidal”, the “MIC, %” value (C. albicans ATCC 10231 [5]; [8]) was 0.15% and the “MIC” value (C. albicans ATCC 10231 [5]; [9]) was 1500 µg/mL. The “MFC” value (C. albicans ATCC 10231 [5]; 99.9% inhibition of growth) was 1500 µg/mL, the “MFC, %” value (C. albicans ATCC 10231 [5]; 99.9% inhibition of growth) was 0.15% and the fungicidal activity (C. albicans ATCC 10231 [5]; [7]) was “Fungal activity”. The “MIC, %” value (T. rubrum ATCC 28188 [6]; [8]) was 0.08%, the “MIC” value (T. rubrum ATCC 28188 [6]; [9]) was 800 µg/mL and the “MFC” value (T. rubrum ATCC 28188 [6]; 99.9% inhibition of growth) was 3000 µg/mL. The “MFC, %” value (T. rubrum ATCC 28188 [6]; 99.9% inhibition of growth) was 0.3%, the fungicidal activity (T. rubrum ATCC 28188 [6]; [7]) was “did not demonstrate fungicidal activity” and the “MFC” value (C. albicans ATCC 10231 [1]) was 13000 µg/mL. The “MFC, %” value (C. albicans ATCC 10231 [1]) was 1.3%, the “MIC, %” value (C. albicans ATCC 10231 [1]; [8]) was 0.08% and the “MIC” value (C. albicans ATCC 10231 [1]; 80% reduction in growth) was 800 µg/mL. The “MFC” value (T. rubrum ATCC 28188 [2]) was 6000 µg/mL, the “MFC, %” value (T. rubrum ATCC 28188 [2]) was 0.6% and the “MIC, %” value (T. rubrum ATCC 28188 [2]; [8]) was 0.04%. For the same compound, the “MIC” value (T. rubrum ATCC 28188 [2]; [9]) was 400 µg/mL and the fungicidal activity (T. rubrum ATCC 28188 [2]) was “did not demonstrate fungicidal activity”.
